Laboratory results: ChEMBL document CHEMBL3045772, “Amide derivatives of [6-acyl-2-benzothiazolinon-3-yl] acetic acids as potential analgesic and anti-inflammatory compounds” (Med Chem Res, 2010)

Experiments:
Format in all cases: functional
Mus musculus [1] = assay: Anti-inflammatory activity in Mus musculus Swiss albino (mouse) assessed as inhibition of carrageenan-induced edema at 10 mg/kg, po pretreated 60 min before carrageenan-challenge measured after 90 min
Mus musculus [2] = assay: Anti-inflammatory activity in Mus musculus Swiss albino (mouse) assessed as inhibition of carrageenan-induced edema at 10 mg/kg, po pretreated 60 min before carrageenan-challenge measured after 360 min
Mus musculus [3] = assay: Anti-inflammatory activity in Mus musculus Swiss albino (mouse) assessed as inhibition of carrageenan-induced edema at 10 mg/kg, po pretreated 60 min before carrageenan-challenge measured after 270 min
Mus musculus [4] = assay: Anti-inflammatory activity in Mus musculus Swiss albino (mouse) assessed as inhibition of carrageenan-induced edema at 10 mg/kg, po pretreated 60 min before carrageenan-challenge measured after 180 min

COc1ccc2c(c1)c(CC(=O)O)c(C)n2C(=O)c1ccc(Cl)cc1 [INDOMETHACIN]
inhibition in vivo at 10 mg/kg (Mus musculus [1]): 25.4%
inhibition in vivo at 10 mg/kg (Mus musculus [2]): 40.1%
inhibition in vivo at 10 mg/kg (Mus musculus [3]): 36.2%
inhibition in vivo at 10 mg/kg (Mus musculus [4]): 30.7%
